What was measured:
bile-deficient rats = test: Absorption of 3H-stearic acid with oral DIMEB in bile-deficient rats (Example 11); format: in vivo, CFY female rats; conditions: for Radioactivity in 10 ml of blood: 23.5 mg 3H-stearic acid + 60 mg DIMEB oral
Protocol: The substitution by DIMEB of the bile in bile-deficiency was studied in rats after ligating the bile duct.
After being starved for 24 hours, the animals (CFY female rats with an average body weight of 150 g) were subjected to a bile duct-ligation under nembutal anaesthesia. The absorption was investigated in the 48th hour after starving the animals overnight. The animals were starved in the course of the examination, too, but received water ad libitum. One group (consisting of 4 animals) received 22.2 mg of ^3 H-stearic acid (specific radioactivity: 92.5 kBq/mg), whereas the other group (consisting of 4 animals) was administered 23.5 mg of ^3 H-stearic acid and 60 mg of DIMEB in 2 ml of distilled water. The substances were suspended ultrasonically in the distilled water. Thereafter, the radioactivity level of the blood was measured at various intervals by using the liquid scintillation method (Table XII).

Water solubility = format: physicochemical
[1] = system: bile duct-ligated rabbits; test: Substitution of the bile in bile duct-ligated rabbits (plasma triglyceride); format: in vivo, rabbits (Orychtolagus cuniculus); conditions: for Plasma triglyceride concentration: rabbits after bile duct ligature
Protocol: The triglyceride concentration of the plasma was determined by using the method of E. Van Handel [Clin. Chem.. 7, 249 (1961)], whereas the concentration of the free fatty acids was measured according to W. G. Dumcombe [Biochem. J. 88, 7 (1963)].
The experimental animals were prevented in using their own bile for digestion of lipids by ligating their bile duct. Triglyceride concentration of the blood plasma was investigated after oral administration of lipids under normal pancreas secretion.
The experimental rabbits (Orychtolagus cuniculus) were kept at a standard food fo 10 days before the experiment. The organic material composition of the animal food was as follows:
The energy content of 100 g of the food amounted to […]. The animals were starved for 12 to 24 hours before the surgical operations but received water ad libitum. Within the same experimental series, rabbits of the same sex with a body weight of 2500 to 3000 g were used and the surgical operations were concurrently carried out. Pseudo-operated animals were used as controls. The operated experimental animals were used for the investigations after 48 hours. The test substances were orally administered to the animals through a gastric tube. The blood samples were taken from the auricular marginal vene.
In the first series of experiments, the first group of animals were given 3 ml of sunflower oil, the second group of animals were given 3 ml of sunflower oil and 200 mg of DIMEB dissolved in 3 ml of water. The control (speudo-operated) animals received 6 ml of water.
It is known that the digestion of the fats is a slower process than that of the oils. Thus, in the second series of experiments, the changes of the plasma triglyceride concentration of bile duct-ligated rabbits were followed after the oral administration of 5 ml of swine fat and 5 ml of swine fat together with 300 mg of DIMEB, respectively. The control group was given 5 ml of water (Table V). The quantity of the triglycerides was increased by about 100 percent as compared to the other two groups within one hour following the treatment. This tendency permanently remained during the experimental period lasting 6 hours.

[2] = Absorption and elimination of DIMEB in animal experiments; format: in vivo

In the case of `COC[C@H]1O[C@@H]2O[C@H]3[C@H](O)[C@@H](OC)[C@@H](O[C@H]4[C@H](O)[C@@H](OC)[C@@H](O[C@H]5[C@H](O)[C@@H](OC)[C@@H](O[C@H]6[C@H](O)[C@@H](OC)[C@@H](O[C@H]7[C@H](O)[C@@H](OC)[C@@H](O[C@H]8[C@H](O)[C@@H](OC)[C@@H](O[C@H]1[C@H](O)[C@H]2OC)O[C@@H]8COC)O[C@@H]7COC)O[C@@H]6COC)O[C@@H]5COC)O[C@@H]4COC)O[C@@H]3COC` [DIMEB, heptakis(2,6-di-O-methyl)-β-cyclodextrin], the “Radioactivity in 10 ml of blood” value (bile-deficient rats; 1 h, animal 5) is reported as 1.18 percentage, the “Radioactivity in 10 ml of blood” value (bile-deficient rats; 1 h, animal 6) is reported as 1.41 percentage and the “Radioactivity in 10 ml of blood” value (bile-deficient rats; 1 h, animal 7) is reported as 1.66 percentage. The “Radioactivity in 10 ml of blood” value (bile-deficient rats; 1 h, animal 8) was 0.50 percentage, the “Radioactivity in 10 ml of blood” value (bile-deficient rats; 1 h, mean) was 1.19 percentage and the “Radioactivity in 10 ml of blood” value (bile-deficient rats; 2 h, animal 5) was 1.46 percentage. For the same molecule, the “Radioactivity in 10 ml of blood” value (bile-deficient rats; 2 h, animal 6) was 1.52 percentage, the “Radioactivity in 10 ml of blood” value (bile-deficient rats; 2 h, animal 7) was 1.52 percentage and the “Radioactivity in 10 ml of blood” value (bile-deficient rats; 2 h, animal 8) was 0.64 percentage. The “Radioactivity in 10 ml of blood” value (bile-deficient rats; 2 h, mean) was 1.28 percentage, the “Radioactivity in 10 ml of blood” value (bile-deficient rats; 3 h, animal 5) was 1.29 percentage and the “Radioactivity in 10 ml of blood” value (bile-deficient rats; 3 h, animal 6) was 1.63 percentage. The “Radioactivity in 10 ml of blood” value (bile-deficient rats; 3 h, animal 7) was 1.37 percentage, the “Radioactivity in 10 ml of blood” value (bile-deficient rats; 3 h, animal 8) was 0.61 percentage and the “Radioactivity in 10 ml of blood” value (bile-deficient rats; 3 h, mean) was 1.22 percentage. For the same molecule, the “Radioactivity in 10 ml of blood” value (bile-deficient rats; 4 h, animal 5) was 1.42 percentage, the “Radioactivity in 10 ml of blood” value (bile-deficient rats; 4 h, animal 6) was 1.67 percentage and the “Radioactivity in 10 ml of blood” value (bile-deficient rats; 4 h, animal 7) was 1.56 percentage. For the same molecule, the “Radioactivity in 10 ml of blood” value (bile-deficient rats; 4 h, animal 8) was 0.60 percentage, the “Radioactivity in 10 ml of blood” value (bile-deficient rats; 4 h, mean) was 1.31 percentage and the “Radioactivity in 10 ml of blood” value (bile-deficient rats; 5 h, animal 5) was 1.39 percentage. The “Radioactivity in 10 ml of blood” value (bile-deficient rats; 5 h, animal 6) was 1.73 percentage, the “Radioactivity in 10 ml of blood” value (bile-deficient rats; 5 h, animal 7) was 1.54 percentage and the “Radioactivity in 10 ml of blood” value (bile-deficient rats; 5 h, animal 8) was 0.69 percentage. The “Radioactivity in 10 ml of blood” value (bile-deficient rats; 5 h, mean) was 1.34 percentage, the “Radioactivity in 10 ml of blood” value (bile-deficient rats; 6 h, animal 5) was 1.41 percentage and the “Radioactivity in 10 ml of blood” value (bile-deficient rats; 6 h, animal 6) was 1.92 percentage. For the same molecule, the “Radioactivity in 10 ml of blood” value (bile-deficient rats; 6 h, animal 7) was 1.76 percentage, the “Radioactivity in 10 ml of blood” value (bile-deficient rats; 6 h, animal 8) was 0.73 percentage and the “Radioactivity in 10 ml of blood” value (bile-deficient rats; 6 h, mean) was 1.45 percentage. The “Radioactivity in 10 ml of blood” value (bile-deficient rats; 8 h, animal 5) was 1.43 percentage, the “Radioactivity in 10 ml of blood” value (bile-deficient rats; 8 h, animal 6) was 1.90 percentage and the “Radioactivity in 10 ml of blood” value (bile-deficient rats; 8 h, animal 7) was 1.85 percentage. The “Radioactivity in 10 ml of blood” value (bile-deficient rats; 8 h, animal 8) was 0.72 percentage, the “Radioactivity in 10 ml of blood” value (bile-deficient rats; 8 h, mean) was 1.47 percentage and the “Radioactivity in 10 ml of blood” value (bile-deficient rats; 10 h, animal 5) was 1.57 percentage. For the same molecule, the “Radioactivity in 10 ml of blood” value (bile-deficient rats; 10 h, animal 6) was 1.56 percentage, the “Radioactivity in 10 ml of blood” value (bile-deficient rats; 10 h, animal 7) was 1.45 percentage and the “Radioactivity in 10 ml of blood” value (bile-deficient rats; 10 h, animal 8) was 0.89 percentage. For the same molecule, the “Radioactivity in 10 ml of blood” value (bile-deficient rats; 10 h, mean) was 1.37 percentage, the “Radioactivity in 10 ml of blood” value (bile-deficient rats; 24 h, animal 5) was 1.50 percentage and the “Radioactivity in 10 ml of blood” value (bile-deficient rats; 24 h, animal 6) was 1.94 percentage. For the same molecule, the “Radioactivity in 10 ml of blood” value (bile-deficient rats; 24 h, animal 7) was 1.59 percentage, the “Radioactivity in 10 ml of blood” value (bile-deficient rats; 24 h, animal 8) was 1.95 percentage and the “Radioactivity in 10 ml of blood” value (bile-deficient rats; 24 h, mean) was 1.74 percentage. For the same molecule, the “Blood level relative to animals treated with stearic acid alone” value (bile-deficient rats; 24th hour) was 2 times, the “Blood radioactivity relative to animals treated with stearic acid alone” value (bile-deficient rats; time not given) was 4.4 times and the Water solubility (Water solubility) was “very high water solubility”. The “Plasma triglyceride concentration compared with the group treated with oil alone” value ([1]; bile duct-ligated rabbits, 3 ml sunflower oil + 200 mg DIMEB, 6th hour) was “nearly three-fold”, the “Increase of the quantity of plasma triglycerides compared to the other two groups” value ([1]; bile duct-ligated rabbits, 5 ml swine fat + 300 mg DIMEB, within one hour following the treatment) was “about 100%” and the Plasma triglyceride concentration ([1]; 3 ml sunflower oil + 200 mg DIMEB oral, Hour 0) was 52 ± 19 mg/100 ml. It also gave a Plasma triglyceride concentration ([1]; 3 ml sunflower oil + 200 mg DIMEB oral, Hour 1) of 96 ± 32 mg/100 ml, a Plasma triglyceride concentration ([1]; 3 ml sunflower oil + 200 mg DIMEB oral, Hour 2.5) of 87 ± 30 mg/100 ml and a Plasma triglyceride concentration ([1]; 3 ml sunflower oil + 200 mg DIMEB oral, Hour 4) of 61 ± 14 mg/100 ml. For the same molecule, the Plasma triglyceride concentration ([1]; 3 ml sunflower oil + 200 mg DIMEB oral, Hour 6) was 125 ± 3 mg/100 ml, the Plasma triglyceride concentration ([1]; 5 ml swine fat + 300 mg DIMEB oral, Hour 0) was 58 ± 19 mg/100 ml and the Plasma triglyceride concentration ([1]; 5 ml swine fat + 300 mg DIMEB oral, Hour 1) was 104 ± 30 mg/100 ml. It also gave a Plasma triglyceride concentration ([1]; 5 ml swine fat + 300 mg DIMEB oral, Hour 2.5) of 92 ± 26 mg/100 ml, a Plasma triglyceride concentration ([1]; 5 ml swine fat + 300 mg DIMEB oral, Hour 4) of 83 ± 25 mg/100 ml and a Plasma triglyceride concentration ([1]; 5 ml swine fat + 300 mg DIMEB oral, Hour 6) of 125 ± 3 mg/100 ml. The “Time to complete elimination through the kidneys” value ([2]; after intravenous administration) was no more than 6 h and the “Absorption after oral administration” value ([2]; animal experiments, oral) was “not absorbed”.
